Drawing on ChEMBL document CHEMBL1136353, “Synthesis of novel fluorescent probes for the molecular chaperone Hsp90” (Bioorg Med Chem Lett, 2003), this text covers Kds for 2 molecules.

The target of the assay is Heat shock protein HSP90 (Homo sapiens, UniProt P07900+P08238). Put plainly: Binding affinity towards Heat shock protein HSP 90-alpha inhibitor. It is filed as protein assay.

As to `CO[C@H]1/C=C\C=C(/C)C(=O)NC2=CC(=O)C(NCCNC(=O)CCC3=N/C(=C\c4c(C)cc(C)n4B(F)F)C=C3)=C(C[C@@H](C)C[C@H](OC)[C@@H](O)[C@@H](C)/C=C(\C)[C@@H]1OC(N)=O)C2=O`, the Kds was determined as 33.8 nM. Molecule `CO[C@H]1/C=C\C=C(/C)C(=O)NC2=CC(=O)C(NCCCCCCO/C(S)=N\c3ccc(-c4c5ccc(=O)cc-5oc5cc(O)ccc45)c(C(=O)O)c3)=C(C[C@@H](C)C[C@H](OC)[C@@H](O)[C@@H](C)/C=C(\C)[C@@H]1OC(N)=O)C2=O` registered a Kds of 23.3 nM.
